Experimental data taken from patent US20070015774A1, “Quinazoline derivatives useful in cancer treatment” (Schering Corporation, priority 2005, published 2007).

Molecular target: GST-p53 DNA binding domain (aa 92-aa 312) (Homo sapiens, UniProt P04637)
Test: Scintillation Proximity Assay (SPA), displacement of 3H STANDARD COMPOUND
Conditions: 2 ug/mL; residual total binding of 3H STANDARD COMPOUND
Description: Most of the oncogenic mutants of the tumor suppressor protein p53 lack sequence specific DNA binding activity at physiological temperature due to conformational changes in the DNA binding domain. Small molecules and peptide which bind to the p53 DNA binding domain stabilize the conformation and restore DNA binding activity to mutant p53 protein (Science 286, 2507-2510, 1999; PNAS, 99, 937-942, 2002). Using ^3H STANDARD COMPOUND (structure shown below; carbon atom with * is the atom labelled), [drawing 1366] a radio labeled small molecule which binds to p53, and the GST-p53 DNA binding domain (aa 92-aa 312), we have developed a quantitative screening assay. The assay is based on Scintillation Proximity Assay (SPA) technology, developed by Amersham Biosciences to measure molecular interactions. Briefly, the complex of GST-p53, ^3H STANDARD and Glutathione-SPA beads (Amersham Biosciences) are incubated with mixing for 1 hr at room temperature in the presence of the novel compounds to be screened. The signal is read on Microbeta. The compounds which have the ability to displace ^3H STANDARD COMPOUND are selected. Such molecules will stabilize the conformation and restore DNA binding activity to mutant p53 protein.
The above assay was used to determine the ability of the compounds of this invention to directly bind to p53 core and restore DNA binding activity to mutant p53 and the results for selected compounds have been given above in various tables.
A letter rating corresponding to % Residual total binding (T) @ 2 ug/mL of drug (i.e., compound of the present invention) from this assay have been assigned as follows: Compounds having % Residual T values of from 0% to less than 20% have been assigned the letter “A”. Compounds having % Residual T values of from 20% to less than 40% have been assigned the letter “B”. Compounds having % Residual T values of from 40% to less than 80% have been assigned the letter “C”. Compounds having % Residual T values of 80% or higher have been assigned the letter “D”. The exact % Residual T values @ 2 ug/mL for some illustrative compounds are shown below: […]

Chain of GST-p53 DNA binding domain (aa 92-aa 312) (P04637 92-312): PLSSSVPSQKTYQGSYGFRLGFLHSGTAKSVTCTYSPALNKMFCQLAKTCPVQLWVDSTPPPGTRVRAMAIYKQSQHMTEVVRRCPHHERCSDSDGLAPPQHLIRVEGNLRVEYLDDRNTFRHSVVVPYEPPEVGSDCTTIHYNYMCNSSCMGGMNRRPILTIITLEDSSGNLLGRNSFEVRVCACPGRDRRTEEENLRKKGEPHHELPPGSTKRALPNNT

SMILES	% Residual T @ 2 ug/mL according to scintillation proximity assay (SPA)
CN(Cc1ccccc1)Cc1nc2ccccc2c(=O)[nH]1 [Preparative Example 17, 2-[(benzylmethylamino)methyl]-3H-quinazolin-4-one]	B (% Residual T values of from 20% to less than 40%)
CN(C)CCCNc1nc(CN(C)Cc2ccccc2)nc2ccccc12 [Preparative Example 19, N,N-dimethyl-N′-[2-{(N-methyl-N-benzylamino)methyl}quinazolin-4-yl]propane-1,3-diamine]	B (% Residual T values of from 20% to less than 40%)
CNCc1nc(NCCCN(C)C)c2ccccc2n1 [Preparative Example 20, N,N-DIMETHYL-N′-[2-(METHYLAMINOMETHYL)QUINAZOLIN-4-YL]PROPANE-1,3-DIAMINE]	C (% Residual T values of from 40% to less than 80%)
CN(C)CCC[C@H](N)C(N)=O [Preparative Example 42, 2(S)-(+)-AMINO-5-DIMETHYLAMINOPENTANAMIDE]	D (% Residual T values of 80% or higher)
